Source: EP1598418A1, “STABILISED COMPOSITION FOR FLUORIMETRIC, COLORIMETRIC OR CHEMOLUMINESCENT ASSAYS, KITS CONTAINING SAME AND PRODUCTION METHOD THEREOF” (BIOTOOLS BIOTECHNOLOGICAL & MEDICAL LABORATORIES, S.A., priority 2003, dated 2004)

Tests used:
Conditions in all cases: vs fresh mixture
[1] = tested on: nucleic acids immobilised in ELISA microplates; experiment: Amplification and colorimetric detection with stabilised nucleic acids immobilised in ELISA microplates (Example 10.1)
[2] = tested on: streptoavidin conjugated with HRP (Str-HRP) and anti-digoxygenin conjugated with alkaline phospatase (anti-DIG-AP); experiment: Colorimetric ELISA plate activity test of desiccated, stabilised conjugates (Example 8); format: biochemical, HPV 16
Protocol: In 0.2 ml amplification tubes were added 100 microlitres of a 1/250 dilution in a blocking solution of the conjugate Str-HRP (Biospa). In parallel, 0.2 ml phials were prepared in which 100 microlitres were added of a 1/250 dilution in a blocking solution of anti-DIG-AP (Sigma).
For the activity assay of the conjugate anti-DIG-AP an ELISA plate was used in which the dimples had been previously coated with streptoavidin. For the activity assay of conjugate Str-HRP a plate was used instead with dimples previously coated with anti-DIG antibodies. The amplified products were incubated in each plate to allow the immobilisation of the amplicons in the plate.

Scorpion probes = experiment: Real-time amplification with desiccated, stabilised reaction mixture with Scorpion probes after storage (Example 4); format: biochemical, M. tuberculosis
TaqMan probes = experiment: Real-time amplification with desiccated, stabilised reaction mixture with TaqMan probes after storage (Example 2); format: biochemical, P. falciparum
[3] = tested on: Anti-digoxygenin antibodies; experiment: Colorimetric assay of stabilised proteins immobilised in modified glasses (Example 10.4); format: biochemical, P. falciparum
Protocol: To test the possibility of stabilising proteins that have been previously immobilised in pre-treated glass supports, the usual format of microarray systems, two different alternatives were tested as in the previous experiment.
Approach 1. Stabilisation of supports with previously fixed protein. Anti-digoxygenin antibodies were fixed to glass supports pre-treated with aldehyde. To do so, in each support slide 1 microlitre spots were applied of the solution of each protein at a concentration of 30 ng/µl. The slides with the immobilised protein were then coated with a thin layer of each of the stabilising mixtures and then desiccated in a vacuum oven at 25°C and 50 mbar pressure.
(§1) Approach 2. Fixation to the slides of the protein pre-mixed with the stabilising mixtures. A mixture was prepared of each of the probes with the suitable volumes of the stabilising mixtures described in Table 1. Then the mixtures of protein were applied to the various slides with the fixing conditions indicated for each glass format.
(§2) To test the viability of each slide prepared, a colorimetric assay was performed with formation of precipitate products. To do so, the slides were washed for 5 minutes in PBS 1X at room temperature to eliminate the protective layer.

[4] = tested on: DTCS Quick Start Master Mix; experiment: Sequencing reaction with desiccated, stabilised mixture with fluorescent terminators after storage (Example 6); format: biochemical, human papillomavirus
Protocol: To test the possibility of gelling reaction mixtures for sequencing nucleic acids the CEQ 200 Dye Terminator Cycle Sequencing (DTCS) Quick Start Kit (Beckman Coulter) was employed, which uses a PCR sequencing system in a single tube by incorporating four different fluorescent terminators. The sequencing reactions were later analysed in a CEQ 2000 XL DNA Analysis System (Beckman Coulter) capillary electrophoresis automatic sequencing system.
Reaction mixtures were prepared containing 4 microlitres of DTCS Quick Start Master Mix, 1 microlitre of universal primer M13-17 and the suitable volume of each stabilising mixture shown in Table 1.
In parallel, in order to check the evolution of the activity of the desiccated and stabilised tubes, the same plasmid was sequenced using a fresh sequencing mixture in standard conditions. Finally, the sequencing reactions were analysed in the CEQ 200XL system following the supplier's instructions.

[5] = tested on: reaction mixture with SYBR Green; experiment: Real-time amplification with desiccated, stabilised reaction mixture with SYBR Green after storage (Example 5); format: biochemical, oncogenic papillomaviruses
Protocol: To test the efficiency of intercalated fluorophores such as SYBR Green included in desiccated and stabilised reaction mixtures, reaction mixtures were prepared for amplifying a 250 bp fragment corresponding to region E6-E7 of oncogenic papillomaviruses, using the same reagents as described in Example 1. In this case the unit "DNA Engine OPTICON™ 2 System" (MJ Research) was used. […] Also to each phial was added […] of SYBR Green 1 (Molecular probes).
Various tubes were prepared as described above, adding to each the suitable volume of each stabilising mixture shown in Table 1.
In parallel, in order to check the evolution of the activity of the desiccated tubes, DNA samples were amplified using a fresh mixture in the same amplification conditions.
The result of the amplification reaction was analysed in every case by inspecting the fluorescence curve and determining the crossing point, following the instructions of the equipment software, for each reaction tube both fresh and desiccated and stabilised. […] The samples of patients infected with oncogenic HPV gave positive results in every case, while patients infected with non-oncogenic HPV, or not infected with HPV, gave negative results in every case.

antidigoxygenin antibody = experiment: Colorimetry assay of stabilised protein immobilised in ELISA microplates (Example 10.2); format: biochemical, HPV
Protocol: To do so each dimple was incubated with 1µg of antidigoxygenin antibody (Roche).
The amplified product was incubated for 30 minutes in the dimples with the antibody immobilised. The amplified products immobilised in the plate by the union of the digoxygenin group of the amplicons and the immobilised anti-digoxygenin group were analysed by a colorimetric assay. […] The colorimetric reaction was finally analysed by measuring absorption at 415 nm.

[6] = tested on: Molecular Beacon (MB) probe; experiment: Real-time amplification with desiccated, stabilised reaction mixture with Molecular Beacon probe after storage (Example 3); format: biochemical, P. falciparum
FRET probes = experiment: Real-time amplification with desiccated, stabilised reaction mixture with FRET probes after storage (Example 1); format: biochemical, P. falciparum
[7] = tested on: nucleic acids immobilised in modified glasses; experiment: Colorimetric assay of stabilised nucleic acids immobilised in modified glasses (Example 10.3); format: biochemical, HPV 16
Protocol: Approach 1. Stabilisation of supports with previously fixed nucleic acids. HPV specific probes were fixed to glass supports pre-treated with polylysiun, aldehyde, epoxy, superepoxy and silane. To do so, in each support slide 1 microlitre spots were applied of the solution of each oligonucleotide at a concentration of 20 µM in the conditions indicated for each glass format. The slides with the immobilised oligonucleotides were then coated with a thin layer of each of the stabilising mixtures and then desiccated in a vacuum oven at 25°C and 50 mbar pressure.
as §1, with “the nucleic acids” for “the protein”, “of oligonucleotides” for “of protein”
as §2, with “layer. Then the slides were incubated in the presence of an amplified and previously denatured HPV 16 product using the probes A11 and A12.” for “layer.”

[8] = tested on: oligonucleotides chemically modified by including biotin and/or digoxygenin groups; experiment: Amplification with desiccated biotin/digoxygenin oligonucleotides and colorimetric ELISA plate assay (Example 7); format: biochemical, oncogenic HPV
Protocol: To do so, 4 oligonucleotides were designed that hybridised with the genome of region E6-E7 of oncogenic HPV species.
To do so, an ELISA microplate with a high-binding capacity to streptoavidin (Biospa) was activated following a standard fixing protocol. Then, after blocking the plate by incubation with gelatine, the amplified products of the stabilising mixtures 1, 2 and 3 described in Example 7.A were analysed by a colorimetry assay according to the following experimental process: • A.- Amplification products using an onligonucleotide marked with digoxygenin (mixture 1 in Example 7.A). The biotinated probe A11 was fixed to the plate and the amplified product was hybridised. […] The amplification product was fixed to the plate with the first biotinilate and then hybridised with the first A12 marked with digoxygenin.

[9] = tested on: probes marked with biotin or digoxygenin groups; experiment: Synthesis of digoxygenin-marked probes with desiccated mixtures and molecular hybridisation test (Example 9)

Row | SMILES | activity of stabilising mixtures ([1]; conserved at T 4 °C) | activity of stabilising mixtures (TaqMan probes; conserved at T 4 °C) | activity of stabilising mixtures ([3]; conserved at T 4 °C) | activity of stabilising mixtures ([4]; conserved at T 4 °C) | activity of stabilising mixtures (antidigoxygenin antibody; conserved at T 4 °C) | activity of stabilising mixtures ([6]; conserved at T 4 °C) | activity of stabilising mixtures (FRET probes; conserved at T 4 °C) | activity of stabilising mixtures ([7]; conserved at T 4 °C) | activity of stabilising mixtures ([8]; conserved at T 4 °C) | activity of stabilising mixtures ([9]; conserved at T 4 °C) | activity of stabilising mixtures ([2]; conserved at T 4 °C) | activity of stabilising mixtures (Scorpion probes; conserved at T 4 °C) | activity of stabilising mixtures ([5]; conserved at T 4 °C) | further results
1 | OC[C@H]1O[C@H](O[C@H]2O[C@H](CO)[C@@H](O)[C@H](O)[C@H]2O)[C@H](O)[C@@H](O)[C@@H]1O [Trehalose] | ++ (++, positive with 50-90% of the activity of the fresh mixture) | ++ (++, positive with 50-90% of the activity of the fresh mixture) | ++ (++, positive with 50-90% of the activity of the fresh mixture) | ++ (++, positive with 50-90% of the activity of the fresh mixture) | ++ (++, positive with 50-90% of the activity of the fresh mixture) | ++ (++, positive with 50-90% of the activity of the fresh mixture) | ++ (++, positive with 50-90% of the activity of the fresh mixture) | ++ (++, positive with 50-90% of the activity of the fresh mixture) | ++ (++, positive with 50-90% of the activity of the fresh mixture) | ++ (++, positive with 50-90% of the activity of the fresh mixture) |  |  |  | activity of stabilising mixtures ([1]; conserved at T 25 °C): + (+, weak positive, under 50% of the activity of the fresh mixture); activity of stabilising mixtures ([2]; conserved at T 25 °C): + (+, weak positive, under 50% of the activity of the fresh mixture); activity of stabilising mixtures (Scorpion probes; conserved at T 25 °C): + (+, weak positive, under 50% of the activity of the fresh mixture); activity of stabilising mixtures (TaqMan probes; conserved at T 25 °C): + (+, weak positive, under 50% of the activity of the fresh mixture); activity of stabilising mixtures ([3]; conserved at T 25 °C): + (+, weak positive, under 50% of the activity of the fresh mixture); activity of stabilising mixtures ([4]; conserved at T 25 °C): + (+, weak positive, under 50% of the activity of the fresh mixture); activity of stabilising mixtures ([5]; conserved at T 25 °C): + (+, weak positive, under 50% of the activity of the fresh mixture); activity of stabilising mixtures (antidigoxygenin antibody; conserved at T 25 °C): + (+, weak positive, under 50% of the activity of the fresh mixture); activity of stabilising mixtures ([6]; conserved at T 25 °C): + (+, weak positive, under 50% of the activity of the fresh mixture); activity of stabilising mixtures (FRET probes; conserved at T 25 °C): + (+, weak positive, under 50% of the activity of the fresh mixture); activity of stabilising mixtures ([7]; conserved at T 25 °C): + (+, weak positive, under 50% of the activity of the fresh mixture); activity of stabilising mixtures ([8]; conserved at T 25 °C): + (+, weak positive, under 50% of the activity of the fresh mixture); activity of stabilising mixtures ([9]; conserved at T 25 °C): + (+, weak positive, under 50% of the activity of the fresh mixture)
2 | OC[C@H]1O[C@@](CO)(O[C@H]2O[C@H](CO)[C@@H](O)[C@H](O)[C@H]2O)[C@@H](O)[C@@H]1O [Sucrose] | + (+, weak positive, under 50% of the activity of the fresh mixture) | + (+, weak positive, under 50% of the activity of the fresh mixture) | + (+, weak positive, under 50% of the activity of the fresh mixture) | + (+, weak positive, under 50% of the activity of the fresh mixture) | + (+, weak positive, under 50% of the activity of the fresh mixture) | + (+, weak positive, under 50% of the activity of the fresh mixture) | + (+, weak positive, under 50% of the activity of the fresh mixture) | + (+, weak positive, under 50% of the activity of the fresh mixture) | + (+, weak positive, under 50% of the activity of the fresh mixture) | + (+, weak positive, under 50% of the activity of the fresh mixture) | + (+, weak positive, under 50% of the activity of the fresh mixture) | + (+, weak positive, under 50% of the activity of the fresh mixture) | + (+, weak positive, under 50% of the activity of the fresh mixture) | 
3 | OC[C@H]1O[C@@](CO)(O[C@H]2O[C@H](CO)[C@@H](O)[C@H](O)[C@H]2O)[C@@H](O[C@H]2O[C@H](CO)[C@@H](O)[C@H](O)[C@H]2O)[C@@H]1O [Melezitose] | + (+, weak positive, under 50% of the activity of the fresh mixture) | + (+, weak positive, under 50% of the activity of the fresh mixture) | + (+, weak positive, under 50% of the activity of the fresh mixture) | + (+, weak positive, under 50% of the activity of the fresh mixture) | + (+, weak positive, under 50% of the activity of the fresh mixture) | + (+, weak positive, under 50% of the activity of the fresh mixture) | + (+, weak positive, under 50% of the activity of the fresh mixture) | + (+, weak positive, under 50% of the activity of the fresh mixture) | + (+, weak positive, under 50% of the activity of the fresh mixture) | + (+, weak positive, under 50% of the activity of the fresh mixture) | + (+, weak positive, under 50% of the activity of the fresh mixture) | + (+, weak positive, under 50% of the activity of the fresh mixture) | + (+, weak positive, under 50% of the activity of the fresh mixture) | 
